# Results as given in patent publication US20260144788A1, “COMPOUND FOR SHP2 PROTEIN DEGRADATION AND MEDICAL USES THEREOF” (UBIX THERAPEUTICS, INC., priority 2022, published 2026).
# Molecular target: T1, SHP2 protein (Homo sapiens, UniProt Q06124)
# T1 sequence (Q06124 1-593): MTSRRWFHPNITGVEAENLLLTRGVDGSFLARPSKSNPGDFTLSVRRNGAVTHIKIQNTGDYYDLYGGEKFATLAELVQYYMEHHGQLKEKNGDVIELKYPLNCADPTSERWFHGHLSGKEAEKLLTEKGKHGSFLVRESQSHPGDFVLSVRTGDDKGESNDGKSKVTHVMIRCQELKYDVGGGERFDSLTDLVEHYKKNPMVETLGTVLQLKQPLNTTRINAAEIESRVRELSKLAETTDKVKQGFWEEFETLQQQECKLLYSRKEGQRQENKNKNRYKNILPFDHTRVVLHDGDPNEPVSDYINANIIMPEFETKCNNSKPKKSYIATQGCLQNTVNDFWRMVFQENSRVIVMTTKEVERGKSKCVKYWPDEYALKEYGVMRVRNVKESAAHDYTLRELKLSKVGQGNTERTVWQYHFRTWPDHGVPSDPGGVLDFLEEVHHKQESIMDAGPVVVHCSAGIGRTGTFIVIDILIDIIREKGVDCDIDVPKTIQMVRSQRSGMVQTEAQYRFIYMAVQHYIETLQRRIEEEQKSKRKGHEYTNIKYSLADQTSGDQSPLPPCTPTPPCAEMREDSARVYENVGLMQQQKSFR
# Assay: Measurement of SHP2 protein degradation in NCI-H358 cells (western blotting)
# Format: cell-based
# Set-up: endogenous in cells; host or cells: NCI-H358
# Details: harvested after 24 hours
# How it was run: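 H358 cells in RPMI1640/25 mM HEPES/10% FBS, cultured 24 h, then exposed to compound at final 0.001, 0.01 and 0.1 μM for 24 h against a DMSO control. Lysates were normalised for protein by BCA and probed by western blot for SHP2, with GAPDH as loading control.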
SMILES,SHP2% degradation (0.01 μM),SHP2% degradation (0.1 μM)
"Cc1ncsc1-c1ccc(CNC(=O)[C@@H]2C[C@@H](O)CN2C(=O)[C@@H](NC(=O)C2(F)CC2)C(C)(C)C)c(OC2CCN(C(=O)C3CN(c4nccc(Sc5cnc(N6CCC(C)(CN)CC6)cn5)c4Cl)C3)CC2)c1 [Example 63, (2S,4R)—N-(2-((1-(1-(4-((5-(4-(aminomethyl)-4-methylpiperidin-1-yl)pyrazin-2-yl)thio)-3-chloropyridin-2-yl)azetidine-3-carbonyl)piperidin-4-yl)oxy)-4-(4-methylthiazol-5-yl)benzyl)-1-((S)-2-(1-fluorocyclopropane-1-carboxamido)-3,3-dimethylbutanoyl)-4-hydroxypyrrolidine-2-carboxamide]",53.0%,99.0%
"Cc1ncsc1-c1ccc(CNC(=O)[C@@H]2C[C@@H](O)CN2C(=O)[C@@H](NC(=O)C2(F)CC2)C(C)(C)C)c(OC2CCN(C(=O)CC3CN(c4nccc(Sc5cnc(N6CCC(C)(CN)CC6)cn5)c4Cl)C3)CC2)c1 [Example 64, (2S,4R)—N-(2-((1-(2-(1-(4-((5-(4-(aminomethyl)-4-methylpiperidin-1-yl)pyrazin-2-yl)thio)-3-chloropyridin-2-yl)azetidin-3-yl)acetyl)piperidin-4-yl)oxy)-4-(4-methylthiazol-5-yl)benzyl)-1-((S)-2-(1-fluorocyclopropane-1-carboxamido)-3,3-dimethylbutanoyl)-4-hydroxypyrrolidine-2-carboxamide]",87.9%,99.8%
"Cc1ncsc1-c1ccc(CNC(=O)[C@@H]2C[C@@H](O)CN2C(=O)[C@@H](NC(=O)C2(F)CC2)C(C)(C)C)c(OC2CCN(C(=O)C3CCN(c4nccc(Sc5cnc(N6CCC7(CC6)CO[C@@H](C)[C@H]7N)cn5)c4Cl)CC3)CC2)c1 [Example 67, (2S,4R)—N-(2-((1-(1-(4-((5-((3S,4S)-4-amino-3-methyl-2-oxa-8-azaspiro[4.5]decan-8-yl)pyrazin-2-yl)thio)-3-chloropyridin-2-yl)piperidine-4-carbonyl)piperidin-4-yl)oxy)-4-(4-methylthiazol-5-yl)benzyl)-1-((S)-2-(1-fluorocyclopropane-1-carboxamido)-3,3-dimethylbutanoyl)-4-hydroxypyrrolidine-2-carboxamide]",94.5%,96.9%
"CC(=O)N[C@H](C(=O)N1C[C@H](O)C[C@H]1C(=O)NCc1ccc(-c2scnc2C)cc1OC1CCN(C(=O)C2CCN(c3nccc(Sc4cnc(N5CCC(C)(N)CC5)cn4)c3Cl)CC2)CC1)C(C)(C)C [Example 76, (2S,4R)-1-((S)-2-acetamido-3,3-dimethylbutanoyl)-N-(2-((1-(1-(4-((5-(4-amino-4-methylpiperidin-1-yl)pyrazin-2-yl)thio)-3-chloropyridin-2-yl)piperidine-4-carbonyl)piperidin-4-yl)oxy)-4-(4-methylthiazol-5-yl)benzyl)-4-hydroxypyrrolidine-2-carboxamide]",90.0%,98.7%
"CC(=O)N[C@H](C(=O)N1C[C@H](O)C[C@H]1C(=O)NCc1ccc(-c2scnc2C)cc1OC1CCN(C(=O)C2CCN(c3nccc(Sc4cnc(N5CCC6(CC5)CO[C@@H](C)[C@H]6N)cn4)c3Cl)CC2)CC1)C(C)(C)C [Example 77, (2S,4R)-1-((S)-2-acetamido-3,3-dimethylbutanoyl)-N-(2-((1-(1-(4-((5-((3S,4S)-4-amino-3-methyl-2-oxa-8-azaspiro[4.5]decan-8-yl)pyrazin-2-yl)thio)-3-chloropyridin-2-yl)piperidine-4-carbonyl)piperidin-4-yl)oxy)-4-(4-methylthiazol-5-yl)benzyl)-4-hydroxypyrrolidine-2-carboxamide]",94.4%,98.0%
"CC(=O)N[C@H](C(=O)N1C[C@H](O)C[C@H]1C(=O)NCc1ccc(-c2scnc2C)cc1OC1CCN(C(=O)C2CCN(c3nccc(Sc4cnc(N5CCC(C)(CN)CC5)c(CO)n4)c3Cl)CC2)CC1)C(C)(C)C [Example 78, (2S,4R)-1-((S)-2-acetamido-3,3-dimethylbutanoyl)-N-(2-((1-(1-(4-((5-(4-(aminomethyl)-4-methylpiperidin-1-yl)-6-(hydroxymethyl)pyrazin-2-yl)thio)-3-chloropyridin-2-yl)piperidine-4-carbonyl)piperidin-4-yl)oxy)-4-(4-methylthiazol-5-yl)benzyl)-4-hydroxypyrrolidine-2-carboxamide]",98.0%,99.4%
"CC(=O)N[C@H](C(=O)N1C[C@H](O)C[C@H]1C(=O)NCc1ccc(-c2scnc2C)cc1OC1CCN(C(=O)C2CCN(c3nccc(Sc4cnc(N5CCC(C)(N)CC5)c(CO)n4)c3Cl)CC2)CC1)C(C)(C)C [Example 79, (2S,4R)-1-((S)-2-acetamido-3,3-dimethylbutanoyl)-N-(2-((1-(1-(4-((5-(4-amino-4-methylpiperidin-1-yl)-6-(hydroxymethyl)pyrazin-2-yl)thio)-3-chloropyridin-2-yl)piperidine-4-carbonyl)piperidin-4-yl)oxy)-4-(4-methylthiazol-5-yl)benzyl)-4-hydroxypyrrolidine-2-carboxamide]",96.1%,99.9%
"CC(=O)N[C@H](C(=O)N1C[C@H](O)C[C@H]1C(=O)NCc1ccc(-c2scnc2C)cc1OC1CCN(C(=O)C2CCN(c3nccc(Sc4cnc(N5CCC6(CC5)CO[C@@H](C)[C@H]6N)c(CO)n4)c3Cl)CC2)CC1)C(C)(C)C [Example 80, (2S,4R)-1-((S)-2-acetamido-3,3-dimethylbutanoyl)-N-(2-((1-(1-(4-((5-((3S,4S)-4-amino-3-methyl-2-oxa-8-azaspiro[4.5]decan-8-yl)-6-(hydroxymethyl)pyrazin-2-yl)thio)-3-chloropyridin-2-yl)piperidine-4-carbonyl)piperidin-4-yl)oxy)-4-(4-methylthiazol-5-yl)benzyl)-4-hydroxypyrrolidine-2-carboxamide]",99.6%,99.5%
"CC(=O)N[C@H](C(=O)N1C[C@H](O)C[C@H]1C(=O)NCc1ccc(-c2scnc2C)cc1OC1CCN(C(=O)C2CCN(c3nccc(Sc4nc(CO)c(N5CCC(C)(CN)CC5)nc4C)c3Cl)CC2)CC1)C(C)(C)C [Example 81, (2S,4R)-1-((S)-2-acetamido-3,3-dimethylbutanoyl)-N-(2-((1-(1-(4-((5-(4-(aminomethyl)-4-methylpiperidin-1-yl)-6-(hydroxymethyl)-3-methylpyrazin-2-yl)thio)-3-chloropyridin-2-yl)piperidine-4-carbonyl)piperidin-4-yl)oxy)-4-(4-methylthiazol-5-yl)benzyl)-4-hydroxypyrrolidine-2-carboxamide]",85.6%,99.6%
"CC(=O)N[C@H](C(=O)N1C[C@H](O)C[C@H]1C(=O)NCc1ccc(-c2scnc2C)cc1OC1CCN(C(=O)C2CCN(c3cccc(Sc4cnc(N5CCC(C)(CN)CC5)cn4)c3Cl)CC2)CC1)C(C)(C)C [Example 82, (2S,4R)-1-((S)-2-acetamido-3,3-dimethylbutanoyl)-N-(2-((1-(1-(3-((5-(4-(aminomethyl)-4-methylpiperidin-1-yl)pyrazin-2-yl)thio)-2-chlorophenyl)piperidine-4-carbonyl)piperidin-4-yl)oxy)-4-(4-methylthiazol-5-yl)benzyl)-4-hydroxypyrrolidine-2-carboxamide]",94.9%,97.4%
